“Also recorded” adds a separate entry of the source.
What was measured:
[1] = system: myeloid cells (CD11b+) and T lymphocyte (CD3+) populations in the tumor; experiment: Gene expression of FACS double-sorted tumor infiltrating leukocytes from MMTV-PyMT tumors; type: in vivo, mouse
Description: Tumor cells were isolated and processed as previously described. To enrich for CD45^+ immune cells, EPCAM^+ tumor cell depletion was carried out. Whole tumor cell suspension was incubated with biotinylated anti-EPCAM antibody (MACS Miltenyi cat. #130-101-859, clone caa7-9G8) for 10 minutes followed by incubation with Anti-Biotin Microbeads (MACS Miltenyi cat. #130-090-485) for 15 minutes at 4° C. in the dark. […] Following negative selection, EPCAM-depleted cells were stained for anti-mouse CD45 Alex FLOUR® 488 (BioLegend cat. #103121, clone 30-F11), anti-mouse CD3 BV421 (BioLegend cat. #100227, clone 17A2), anti-mouse CD11b APC (BioLegend cat. #101211, clone M1/70), and anti-mouse CD19 (BioLegend cat. #115507, clone 6D5). 7-AAD Viability Staining Solution (BioLegend cat. #420403) was applied to the cells 10 minutes prior to sorting on the BD FACSAria. CD45+/CD19-/7-AAD-/CD3+ cells and CD45+/CD19-/7-AAD-/CD11b+ cells were sorted into DMEM medium (Life Technologies cat. #11995-065) containing 2% FBS at 4° C. Cells were pelleted and immediately lysed in RNEASY® RLT buffer (RNEASY® Mini Plus Kit, Qiagen cat. #74134) containing 2-mercaptoethanol. RNA was isolated according to RNEASY® instructions in combination with RNase-Free DNase Set (Qiagen cat. #79254) standard protocol, and quality was verified with the Nanodrop™ Spectrophotometer. To obtain adequate amounts of RNA tumors from 5 mice were pooled together for each “sample”.
All procedures were performed at Boston University Microarray Resource Facility as described in the GENECHIP® Whole Transcript (WT) Plus Reagent Kit Manual (Affymetrix, Santa Clara, Calif.). Briefly, the total RNA was isolated using an RNEASY® kit (Qiagen), and the sample integrity was verified using RNA 6000 Pico Assay RNA chips run in Agilent 2100 Bioanalyzer (Agilent Technologies). The total RNA (200 ng) was reverse transcribed using GENECHIP® WT PLUS Reagent Kit (Affymetrix). The obtained cDNA was used as a template for in vitro transcription using GeneChip® WT Expression Kit (Life Technologies). The obtained antisense cRNA was purified using Nucleic Acid Binding Beads (GENECHIP® WT PLUS Reagent Kit, Affymetrix) and used as a template for reverse transcription to produce single-stranded DNA in the sense orientation. During this step, dUTP was incorporated. The DNA was then fragmented using uracil DNA glycosylase (UDG) and apurinic/apyrimidinic endonuclease 1 (APE 1) and labeled with DNA labeling reagent covalently linked to biotin using terminal deoxynucleotidyl transferase (TdT, GENECHIP® WT PLUS Reagent Kit, Affymetrix). IVT and cDNA fragmentation quality controls were carried out by running an mRNA Pico assay in the Agilent 2100 Bioanalyzer. […]

[2] = system: MMTV-PyMT tumors; experiment: Depletion experiments (anti-CD11b, anti-CSF1, anti-CD8, anti-CD4, anti-IFNγ); type: in vivo, mouse
Description: For CSF1 depletion, mice were injected IP with 1 mg of anti-CSF1 (BioXCell BE0204; clone 5A1) 1 day before treatment with vehicle or compound, and then with 0.5 mg every 5 days^3. For CD11b depletion mice were injected IP with 100 μg of anti-CD11b (clone M1/70; BioLegend 101231) one day before treatment with vehicle or compound, and then every other day.^34 For CD8 immune cell depletion, mice were injected IP with 1 mg anti-CD8 immunoglobulin (BioXCell BE0117; clone YTS169.4) or control IgG2b (BioXCell BE0090; clone LTF-2) on day 1 and then with 0.5 mg every 5 days for 2 week study. For 6-day experiment mice were dosed with: IgG1 (BioXcell BE0088; clone HRPN), α-CD8 (BioXcell BE0117; clone YTS169.4), α-CD4 (BioXcell BE0033-1; clone GK1.5) and α-INFγ (BioXcell BE0055; clone XMG1.2) with 1 mg on day 0 and 0.5 mg on day 4; except α-CD4 which was dosed at 400 μg on day 0 and 400 μg on day 4.

[3] = system: whole MMTV-PyMT tumors; experiment: Gene expression in RNA isolated from whole tumors after two weeks of treatment; type: in vivo, mouse; conditions: two weeks TMP195 vs vehicle, n=3 mice per group
Description: All procedures were performed at Boston University Microarray Resource Facility as described in the […] ® Whole Transcript (WT) Plus Reagent Kit Manual (Affymetrix, Santa Clara, Calif.). Briefly, the total RNA was isolated using an RNEASY® kit (Qiagen), and the sample integrity was verified using RNA 6000 Pico Assay RNA chips run in Agilent 2100 Bioanalyzer (Agilent Technologies). […] The obtained cDNA was used as a template for in vitro transcription using GeneChip® WT Expression Kit (Life Technologies). […] During this step, dUTP was incorporated. […] IVT and cDNA fragmentation quality controls were carried out by running an mRNA Pico assay in the Agilent 2100 Bioanalyzer. The labeled fragmented DNA was hybridized to the Gene Arrays 1.0ST for 16-18 h in […] ® Hybridization oven 640 at 45° C. with rotation (60 r.p.m.). The hybridized samples were washed and stained using Affymetrix fluidics station 450 as per manufacturer's instruction (Hybridization, Washing and Staining kit, Affymetrix). Microarrays were immediately scanned using Affymetrix GeneArray Scanner 3000 7G Plus (Affymetrix).

[4] = system: mouse MMTV-PyMT breast tumor cell lines; experiment: In vitro cell death assay (CellTiter-Glo), mouse lines; type: cell-based; conditions: 0, 0.1, 1, 10 μM, 48 hours
Description: The human breast cancer cell lines (BT20, MCF7, HCC202, T47D, MDA-MB-453 and MDA-MB-436) were obtained from ATCC. Prior to use, cell line authentication was performed by either STR profiling at Dana-Farber Cancer Institute or by Fluidigm based fingerprinting with a panel of SNPs at The Broad Institute. Cell lines were tested for mycoplasma with the MycoAlert PLUS Mycoplasma Detection Kit (Lonza LT07) according to manufacturer's instructions. Mouse breast tumor cell lines were established from 4 different MMTV-PyMT tumor bear mice. Mouse breast tumor cell line 7333 was implanted into wild-type littermates and once the tumor formed it was removed and used to generate the tumor cell line “MMTV”. All cells were plated at 1E4 cells/well in a 96 well plate. Cells were treated for 48 hours and CellTiter-Glo was used to assess cell viability.

[5] = TMP195 daily for 5 days vs DMSO

CC(C)(CNC(=O)c1cccc(-c2noc(C(F)(F)F)n2)c1)c1coc(-c2ccccc2)n1 [TMP195, N-(2-methyl-2-(2-phenyloxazol-4-yl)propyl)-3-(5-(trifluoromethyl)-1,2,4-oxadiazol-3-yl)benzamide]
number of differentially expressed probes (δ-factor >1.5) in CD3+ cells [1, 5]: 3 probes | number of differentially expressed probes (δ-factor >1.5) in CD11b+ cells [1, 5]: 26 probes | increase in gene expression in CD11b+ myeloid cells ([1]; TMP195 daily for 5 days vs DMSO, probes with δ-factor >1.5): up to 4.8 fold | IFNγ response gene signature in tumor-resident CD11b+ cells ([1]; TMP195 treatment): induced an IFNγ response gene signature | anti-tumor efficacy with myeloid cell depletion (anti-CD11b) ([2]; TMP195 50 mg/kg IP daily plus anti-CD11b): abrogated the efficacy | anti-tumor efficacy with macrophage depletion (anti-CSF-1) ([2]; TMP195 50 mg/kg IP daily plus anti-CSF-1): abrogated the efficacy | CD34 staining in tumor sections with IFNγ neutralization ([2]; TMP195 plus anti-IFNγ antibody): failed to normalize CD34 staining | autochthonous tumor burden with CD4+ cell depletion ([2]; TMP195 plus α-CD4, 6 days): reduced | single agent efficacy with CD8+ cell depletion ([2]; TMP195 plus α-CD8): prevented the single agent efficacy | Granzyme B+ CD8+ T cells in tumors with IFNγ neutralization ([2]; TMP195 plus α-IFNγ): disappearance | reduction of tumor burden with IFNγ neutralization ([2]; TMP195 plus α-IFNγ, 6 days): loss of efficacy | differential gene expression in whole tumor RNA [3]: overall lack of differential gene expression | cell viability, 6 mouse MMTV-PyMT cell lines [4]: not directly cytotoxic; also recorded: does not affect cell viability
